Columns and labels:
nAChRs on LUHMES neurons [1] = test system: nAChRs on LUHMES neurons; set-up: method as in Loser et al. [2021a]; conditions: ref Loser et al. [2021a]; cited from earlier work
human α3β4 nAChR = target: T1, human α3β4 nAChR (Homo sapiens, UniProt P30926+P32297); assay: Two-electrode voltage-clamp recordings, Xenopus laevis oocytes expressing human α3β4 nAChR; type: cell-based
T1 construct: expressed in transfected cells; host or cells: Xenopus laevis oocytes, mRNA injection, 0.33 ng α3 and 3.33 ng β4
T1 sequence (P32297 32-505): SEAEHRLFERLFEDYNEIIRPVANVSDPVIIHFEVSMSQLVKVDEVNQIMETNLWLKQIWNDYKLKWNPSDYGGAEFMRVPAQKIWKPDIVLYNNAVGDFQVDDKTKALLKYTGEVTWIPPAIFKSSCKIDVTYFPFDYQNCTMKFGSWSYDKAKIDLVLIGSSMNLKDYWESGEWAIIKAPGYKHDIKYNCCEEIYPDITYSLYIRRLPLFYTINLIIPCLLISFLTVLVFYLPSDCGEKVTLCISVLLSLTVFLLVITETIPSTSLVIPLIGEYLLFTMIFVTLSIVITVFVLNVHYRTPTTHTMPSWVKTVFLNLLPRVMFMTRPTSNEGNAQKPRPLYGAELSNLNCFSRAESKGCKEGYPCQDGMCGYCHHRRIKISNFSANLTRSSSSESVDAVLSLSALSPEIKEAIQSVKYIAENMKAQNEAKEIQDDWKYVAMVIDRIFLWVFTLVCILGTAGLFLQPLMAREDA
T1 sequence (P30926 22-498): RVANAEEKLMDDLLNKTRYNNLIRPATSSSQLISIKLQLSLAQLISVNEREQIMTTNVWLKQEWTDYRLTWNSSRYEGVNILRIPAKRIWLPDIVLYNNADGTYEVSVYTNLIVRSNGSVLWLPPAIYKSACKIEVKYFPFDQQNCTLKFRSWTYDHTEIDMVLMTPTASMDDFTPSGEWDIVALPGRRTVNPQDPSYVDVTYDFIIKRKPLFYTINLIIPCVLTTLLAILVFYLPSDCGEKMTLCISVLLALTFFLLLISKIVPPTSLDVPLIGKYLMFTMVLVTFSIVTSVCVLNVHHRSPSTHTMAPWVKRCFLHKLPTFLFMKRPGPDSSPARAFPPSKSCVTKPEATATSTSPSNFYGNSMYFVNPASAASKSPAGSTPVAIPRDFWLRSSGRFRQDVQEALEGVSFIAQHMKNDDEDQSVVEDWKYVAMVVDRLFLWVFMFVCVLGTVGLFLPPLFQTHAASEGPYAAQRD

human α4β2 (LS) nAChR = target: T2, human α4β2 (LS) nAChR (Homo sapiens, UniProt P17787+P43681); assay: Two-electrode voltage-clamp recordings, Xenopus laevis oocytes expressing human α4β2 (LS) nAChR; type: cell-based; conditions: tested concentration range ≤ 100 µM
T2 construct: expressed in transfected cells; host or cells: Xenopus laevis oocytes, mRNA injection, 10 ng α4 and 1 ng β2
T2 sequence (P43681 27-627): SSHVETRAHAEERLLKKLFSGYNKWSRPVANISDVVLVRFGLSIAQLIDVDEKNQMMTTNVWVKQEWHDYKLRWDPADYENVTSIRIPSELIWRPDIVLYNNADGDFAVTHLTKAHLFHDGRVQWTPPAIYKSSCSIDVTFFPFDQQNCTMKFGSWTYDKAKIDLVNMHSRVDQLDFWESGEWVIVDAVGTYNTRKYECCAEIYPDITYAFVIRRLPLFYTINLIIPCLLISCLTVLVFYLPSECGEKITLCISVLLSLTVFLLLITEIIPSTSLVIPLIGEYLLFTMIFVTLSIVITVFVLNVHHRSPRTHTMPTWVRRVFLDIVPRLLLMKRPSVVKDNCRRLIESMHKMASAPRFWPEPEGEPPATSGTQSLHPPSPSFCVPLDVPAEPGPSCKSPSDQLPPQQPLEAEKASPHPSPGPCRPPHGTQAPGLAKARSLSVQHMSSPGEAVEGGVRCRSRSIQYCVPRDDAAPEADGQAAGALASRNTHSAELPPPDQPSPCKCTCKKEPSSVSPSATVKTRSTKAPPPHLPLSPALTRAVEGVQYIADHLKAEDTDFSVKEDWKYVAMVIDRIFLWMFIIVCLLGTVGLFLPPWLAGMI
T2 sequence (P17787 26-502): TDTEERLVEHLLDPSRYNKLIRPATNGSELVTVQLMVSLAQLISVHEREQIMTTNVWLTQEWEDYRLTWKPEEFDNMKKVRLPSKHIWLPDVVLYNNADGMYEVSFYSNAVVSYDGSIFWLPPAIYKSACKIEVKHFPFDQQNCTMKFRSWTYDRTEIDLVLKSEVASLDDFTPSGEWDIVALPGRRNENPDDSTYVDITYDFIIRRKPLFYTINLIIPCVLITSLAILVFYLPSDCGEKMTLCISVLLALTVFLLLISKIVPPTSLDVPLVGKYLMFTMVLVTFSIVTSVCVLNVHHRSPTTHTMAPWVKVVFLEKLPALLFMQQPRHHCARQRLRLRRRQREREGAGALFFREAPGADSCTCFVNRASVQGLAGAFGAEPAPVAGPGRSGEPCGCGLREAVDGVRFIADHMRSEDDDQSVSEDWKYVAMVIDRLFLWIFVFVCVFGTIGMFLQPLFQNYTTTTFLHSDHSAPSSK
Excerpt: (§1) The human α7 nAChR subunit was cloned in the pCDNA3.1 vector.
(§2) For the generation of the mRNA for injection, the plasmid DNAs of α3, α4, β2, and β4 were linearized with the NotI restriction endonuclease (New England Biolabs) and the plasmid DNA of α7 was linearized with the XbaI restriction endonuclease (New England Biolabs). The mRNAs of α3, α4, β2, and β4 were generated by in vitro transcription using the mMESSAGE mMACHINE SP6 Transcription Kit (Invitrogen). For the generation of α7 mRNA, the mMESSAGE mMACHINE T7 Transcription Kit (Invitrogen) was used. For the separation of the DNA and mRNA, a phenol–chloroform extraction (Chomczynski and Sacchi [2006]) was performed. The mRNA was then obtained by ethanol precipitation from the aqueous phase; for quantification, the BioPhotometer (Eppendorf) was used.
(§3) The recordings of human α7, α3β4, α4β2, and α4β4 nAChRs expressed in Xenopus laevis oocytes (EcoCyte Bioscience) were performed in two-electrode voltage-clamp mode using the Roboocyte2 system and the corresponding software (version 1.4.1; Multi Channel Systems MCS). Prior to the recordings, the oocytes were maintained at 19 °C in modified Barth’s solution containing [mM]: 88 NaCl, 1 KCl, 0.33 Ca(NO3)2, 0.82 MgSO4, 2.4 NaHCO3, 0.41 CaCl2, 5 Tris, 100 U/ml penicillin, 100 µg/ml streptomycin, pH 7.4.
(§4) To express human α7 nAChR, we injected 50 nl of mRNA solution (30 ng mRNA) per oocyte, using the Roboinject and the corresponding software (version 1.2.1; Multi Channel Systems MCS). […]
(§5) The baseline correction of voltage-clamp oocyte recordings was performed with the Roboocyte2 + software (version 1.4.3; Multi Channel Systems MCS, Germany). The maximal current influx and further analysis were executed in scripts written in R. In the antagonist experiments with oocytes, the maximal inward current was determined for the last response of each period (control, three antagonist concentrations, and washout).

human α4β4 nAChR = target: T3, human α4β4 nAChR (Homo sapiens, UniProt P30926+P43681); assay: Two-electrode voltage-clamp recordings, Xenopus laevis oocytes expressing human α4β4 nAChR; type: cell-based; conditions: tested concentration range ≤ 100 µM
T3 construct: expressed in transfected cells; host or cells: Xenopus laevis oocytes, mRNA injection, 3.33 ng α4 and 3.33 ng β4
T3 sequence (P43681 27-627): as the sequence (P43681 27-627) above
T3 sequence (P30926 22-498): as the sequence (P30926 22-498) above
Excerpt: as §1, §2, §3, §4, §5

human α4β2 (HS) nAChR = target: T4, human α4β2 (HS) nAChR (Homo sapiens, UniProt P17787+P43681); assay: Two-electrode voltage-clamp recordings, Xenopus laevis oocytes expressing human α4β2 (HS) nAChR; type: cell-based
T4 construct: expressed in transfected cells; host or cells: Xenopus laevis oocytes (EcoCyte Bioscience), mRNA injection, 3 ng α4 and 30 ng β2
T4 sequence (P43681 27-627): as the sequence (P43681 27-627) above
T4 sequence (P17787 26-502): as the sequence (P17787 26-502) above

mice = conditions: ref Chao and Casida [1997], cited from earlier work
human α7 nAChR = target: T5, human α7 nAChR (Homo sapiens, UniProt P36544); assay: Two-electrode voltage-clamp recordings, Xenopus laevis oocytes expressing human α7 nAChR; type: cell-based; conditions: for inward currents: tested up to 100 µM range
T5 construct: expressed in transfected cells; host or cells: Xenopus laevis oocytes, injection of 30 ng mRNA (pCDNA3.1, T7 transcript)
T5 sequence (P36544 23-502): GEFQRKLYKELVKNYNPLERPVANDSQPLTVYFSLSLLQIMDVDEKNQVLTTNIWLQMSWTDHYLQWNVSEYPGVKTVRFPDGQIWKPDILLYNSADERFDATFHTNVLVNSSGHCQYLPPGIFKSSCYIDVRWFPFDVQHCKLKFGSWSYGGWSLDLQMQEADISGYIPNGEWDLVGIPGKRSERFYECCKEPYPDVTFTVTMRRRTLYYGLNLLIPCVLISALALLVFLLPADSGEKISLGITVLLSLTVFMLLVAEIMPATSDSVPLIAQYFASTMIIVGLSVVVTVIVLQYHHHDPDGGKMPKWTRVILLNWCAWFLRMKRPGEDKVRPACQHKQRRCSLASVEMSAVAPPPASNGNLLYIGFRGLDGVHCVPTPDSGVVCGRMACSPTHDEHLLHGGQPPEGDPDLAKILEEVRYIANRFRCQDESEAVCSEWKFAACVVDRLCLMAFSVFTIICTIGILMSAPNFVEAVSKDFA

nAChRs on LUHMES neurons [2] = assay: High-throughput Ca2+-imaging of LUHMES neurons (agonist effect); type: cell-based, human
Method: For Ca^2+-imaging, the cells were pre-differentiated for 48 h in cell culture flasks, detached and plated at a density of 20,000 cells and 30,000 cells per well on 0.1% PEI-coated 384-well and 96-well plates (Greiner Bio-One), respectively, for the Ca^2+-imaging. The cells were further differentiated for another 7 days. 50% of the medium was exchanged every 2–3 days.
(§6) Ca^2+-imaging was performed using HT Functional Drug Screening System FDSS/µCELL (Hamamatsu Photonics) at nominal 37 °C. The FDSS/µCell system enables the indirect recording of changes of [Ca^2+]i via a Ca^2+-sensitive fluorescent dye. The fluorescence signal of a complete 384-well plate is acquired at once with a high-speed and high-sensitivity digital ImagEM X2 EM-CCD camera (Electron Multiplying Charge-Coupled Device, Hamamatsu Photonics), but with limited spatial resolution. Therefore, the software only determines the mean fluorescence signal of each well rather than of individual cells. For compound application, the integrated dispenser head with 384 pipette tips was used, which can add the test compound to all wells simultaneously. Cells were preincubated with Cal-520 AM (AAT Bioquest) at a concentration of 1 µM for 1 h at 37 °C. For recording, the medium was exchanged by a buffer solution containing [mM]: 135 NaCl, 5 KCl, 0.2 MgCl2, 2.5 CaCl2, 10 HEPES, and 10 D-glucose, pH 7.4. Test compound application was executed after obtaining a 1.5 min baseline recording. Where applicable, a second application was executed 4.5 min after the first application. The total recording never exceeded 8 min.
(§7) For the high-throughput Ca^2+-imaging data obtained in LUHMES cells, an offset correction using the FDSS software (version 3.2) was performed. Afterward, the data were exported and further analyzed with scripts written in R (version 3.6.3) (R Core Team [2020]). The concentration–response curves were fitted using a log-logistic model described by Ritz et al. ([2015]), utilizing the R package drc with its function drm() and LL2.2() with the following equation: f(x) = d/[1 + exp(b(log(x) − ẽ))] (Ritz et al. [2015]). The logarithm of the half-maximal effective concentration (logEC50) between 0 and the upper limit (d), which was set to 1, is represented by ẽ, x denotes the concentration, and b stands for the slope parameter (Ritz et al. [2015]). In cases with normalizations to responses induced by other compounds, the function LL2.3() was used with a variable upper limit (d; Ritz et al. [2015]). The same equation was used to determine the half-maximal inhibitory concentration (logIC50). Then the logEC50 and logIC50 values were converted into the pIC50 and pEC50 values, which are the negative logarithms to base 10.

nAChRs on LUHMES neurons [3] = assay: Desensitization of nAChR agonist-evoked [Ca2+]i responses of LUHMES neurons; type: cell-based, human; conditions: pretreatment […], 3 µM nicotine
Method: as §6, §7
Fig. 4 Desensitizing effects of DN-IMI and IMI-olefin on nAChRs. LUHMES neurons differentiated in 384-well plates were pretreated with various concentrations of DN-IMI or IMI-olefin for 4.5 min before different nAChR agonists were applied and [Ca^2+]i signals were recorded. […] Note the treatment scheme (upper right corner), illustrating the experimental design. […] Note the treatment scheme (upper right corner), illustrating the experimental design. Detailed data on n numbers are found in Table S6

nAChRs on LUHMES neurons [4] = assay: Inhibition of DN-IMI-evoked [Ca2+]i responses of LUHMES neurons by nAChR antagonists; type: cell-based, human; conditions: for pIC50 for inhibition of DN-IMI-induced [Ca2+]i response: antagonist pretreatment, DN-IMI 0.5 µM
Method: as §6, §7
LUHMES neurons differentiated in 384-well plates were pretreated with various concentrations of nAChR antagonists before DN-IMI (0.5 µM) was applied in Ca^2+-imaging experiments. […] Note the treatment scheme (upper right corner), illustrating the experimental design. […] Detailed data on n numbers are found in Table S6

nAChRs on SH-SY5Y cells = assay: Inhibition of DN-IMI-evoked [Ca2+]i response of SH-SY5Y cells by mecamylamine; type: cell-based, human; conditions: Mec 125 µM, presence of PNU (10 µM)
human α3β2 nAChRs = test system: human α3β2 nAChRs; set-up: method as in Chavez-Noriega et al. [2000]; conditions: ref Chavez-Noriega et al. [2000]; cited from earlier work
in vitro = conditions: human, hepatocytes
Excerpt: Renal clearance for DN-IMI was assumed to be governed only by passive processes, with both filtration and passive reabsorption being accounted for. Passive permeability was scaled from the predicted permeability in the intestine (Peff 0.37 10-4 cm/s) accounting for the surface area of the proximal tubules in the kidney.

[5] = from curve-fitted concentration–response data

## CC(=O)OCC[N+](C)(C)C [ACh, Acetylcholine chloride]
nAChRs on LUHMES neurons [1]
  pEC50 in LUHMES neurons: ~ 6.0

## O=[N+]([O-])NC1=NCCN1Cc1ccc(Cl)nc1 [IMI, imidacloprid]
Human α3β4 nAChR; concentration-dependent, up to 100 µM
  inward currents: small but significant inward currents
Human α4β2 (LS) nAChR
  activation of the receptor: did not trigger a concentration-dependent activation
Human α4β4 nAChR
  activation of the receptor: did not trigger a concentration-dependent activation
Human α4β2 (HS) nAChR; tested concentration range ≤ 100 µM
  activation of the receptor: did not trigger a concentration-dependent activation
mice; Tomizawa et al. [2000], [2001]
  LD50: 35 to 50 mg/kg
Human α7 nAChR
  inward currents: significant inward currents but with a lower potency and efficacy than DN-IMI

## O=[N+]([O-])Nc1nccn1Cc1ccc(Cl)nc1 [IMI-olefin, imidacloprid-olefin]
nAChRs on LUHMES neurons [2]; LUHMES neurons, absence of PNU, normalized to the maximal response stimulated by DN-IMI, tested ≤ 100 µM
  pEC50 of [Ca2+]i response (peak amplitude): not reached within the measurement range
nAChRs on LUHMES neurons [2]; PNU 10 µM, normalized to maximal response to IMI-olefin in presence of PNU
  pEC50 of [Ca2+]i response in the presence of PNU: 5.5
nAChRs on LUHMES neurons [2]; at 30–100 µM
  response as % of the maximal response to DN-IMI: around 15%
nAChRs on LUHMES neurons [3]
  pIC50 for desensitization of the nicotine-evoked response: 4.9
mice; highest tested dose of 50 mg/kg
  lethality: no lethality
Human α7 nAChR
  inward currents: significant inward currents but with a lower potency and efficacy than DN-IMI

## CC[N+](CC)(CC)CCOc1ccc(/C=C/c2ccccc2)cc1 [MG 624]
nAChRs on LUHMES neurons [4]
  pIC50 for inhibition of DN-IMI-induced [Ca2+]i response: 6.8 ± 0.03

## CCN1C[C@]2(COC(=O)c3ccccc3N3C(=O)C[C@H](C)C3=O)CC[C@H](OC)[C@@]34[C@@H]5C[C@H]6[C@H](OC)[C@@H]5[C@](O)(C[C@@H]6OC)[C@@](O)([C@@H](OC)[C@H]23)[C@@H]14 [MLA, Methyllycaconitine, reference compound]
nAChRs on LUHMES neurons [4]
  pIC50 for inhibition of DN-IMI-induced [Ca2+]i response: 6.8 ± 0.03
Human α7 nAChR; DN-IMI 30 µM
  block of DN-IMI-triggered inward current: concentration-dependently and reversibly blocked

## CNC1(C)C2CCC(C2)C1(C)C (stereo not shown) [Mec, Mecamylamine]
nAChRs on SH-SY5Y cells
  block of DN-IMI-induced [Ca2+]i response in SH-SY5Y: strongly blocked
Human α3β2 nAChRs
  pIC50, literature data for human α3β2 nAChRs: 6.6
nAChRs on LUHMES neurons [4]
  pIC50 for inhibition of DN-IMI-induced [Ca2+]i response: 6.8 ± 0.03
Human α4β2 (HS) nAChR; DN-IMI 1 µM
  block of DN-IMI-triggered inward current: concentration-dependently and reversibly blocked

## COc1cc2c3cc1Oc1cc(ccc1O)C[C@@H]1c4c(cc(OC)c(O)c4Oc4ccc(cc4)C[C@@H]3N(C)CC2)CC[N+]1(C)C [Tubo, (+)-Tubocurarine chloride pentahydrate]
Human α3β4 nAChR; DN-IMI 30 µM
  block of DN-IMI-triggered inward current: concentration-dependently and reversibly blocked
nAChRs on LUHMES neurons [4]
  pIC50 for inhibition of DN-IMI-induced [Ca2+]i response: 5.9
nAChRs on LUHMES neurons [4]; at 100 µM
  block of DN-IMI-evoked response: completely blocked

## CN1CCC[C@H]1c1cccnc1 [nicotine, (-)-Nicotine, reference compound]
Human α3β4 nAChR; [5]
  absolute EC25: 27.5 µM
Human α3β4 nAChR; normalized to nicotine (1 mM)
  estimated maximum: ~ 1
nAChRs on LUHMES neurons [1]
  pEC50 in LUHMES neurons: ~ 6.0
Human α4β2 (HS) nAChR; comparison of EC25 values, α4β2 (HS) vs α7 and α3β4
  higher potency on α4β2 (HS) nAChR than on other subtypes: > 2 log-step
Human α4β2 (HS) nAChR; [5]
  absolute EC25: 0.17 µM
Human α7 nAChR; [5]
  absolute EC25: 30.2 µM
Human α7 nAChR; normalized to nicotine (1 mM)
  estimated maximum: ~ 1

## C[C@]12C=CC(=O)C=C1CC[C@@H]1[C@@H]2[C@@H](O)C[C@@]2(C)[C@H]1CC[C@]2(O)C(=O)CO [prednisolone, reference compound]
In vitro
  hepatocyte CLint: 379 µL/min/1e6 cells

Source: PMC8536575, “Acute effects of the imidacloprid metabolite desnitro-imidacloprid on human nACh receptors relevant for neuronal signaling” (Archives of Toxicology, 2021)
